Measured values as given in US8518894B2, “Human milk peptides” (priority 2009, dated 2013).
Entries after “also recorded” stand apart in the source; their conditions may differ.

Experiments:
[1] = Oxygen Radical Absorbance Capacity (ORAC) assay; conditions: synthetic peptides; for ORAC value (scavenging activity): per g of peptide
Protocol: This assay measures the scavenging capacity of antioxidant nutrients against the peroxyl radical [Diehl-Jones W L and Askin D F. American Association of Critical Care Nurses (AACN) Clin Issues 15: 83 (2004)], which is one of the most common reactive oxygen species (ROS) in the human body. […] To identify the peptides in fraction #23, the sample was injected into an LC-MS/MS system.

[2] = system: TNF-α expression in RAW 264.7 cells; assay: Cytokine expression in LPS-activated mouse macrophage cell line, TNF-α ELISA; assay type: cell-based; conditions: 1 μg/ml LPS, 24 hours
[3] = system: MCP-1 secretion from human PBMCs; assay: MCP-1 secretion from peripheral blood mononuclear cells after peptide exposure (sandwich ELISA); assay type: cell-based; conditions: 24 h exposure, 20 and 100 μg/ml
Protocol: FIG. 13 illustrates stimulation of MCP-1 and Gro-a sectretion from human peripheral blood mononuclear cells (PBMCs) after 24 h exposure to peptides 1-8 (SEQ ID NOs. 1, 29, 2, 8, 9, 19, and 22, respectively) from fraction #23. The experiment was carried out in 4 biological replicates (4 different donors), with 2 technical repeats in each biological experiment. The peptide fragments were tested at 2 concentrations, 20 and 100 μg/ml and MCP-1 and Gro-a were detected by sandwich ELISA kits (BioSource International and eBiosciences, respectively). A positive control peptide (1002) was used in the experiment.
Venous blood from healthy volunteers is collected in Vacutainer® collection tubes containing sodium heparin as an anticoagulant (BD Biosciences). […] The buffy coat is collected and washed twice in RPMI 1640 complete medium, and the number of PBMCs can be determined by trypan blue exclusion. […]
Following 24 hrs of peptide exposure, the tissue culture supernatants are centrifuged at 16,000G (13,000 rpm) at 4° C. for 5 minutes in an IEC MicroMax centrifuge to obtain cell-free samples. […] Cytokines/chemokines are detected by sandwich ELISA kits (BioSource International or eBiosciences) and multiplex kit (Luminex). […] The concentration of the cytokines/chemokines in the culture medium can be quantified by establishing a standard curve with serial dilutions of the recombinant human cytokines/chemokines. […]

[4] = system: IL-6 expression in RAW 264.7 cells; assay: Cytokine expression in LPS-activated mouse macrophage cell line, IL-6 ELISA; assay type: cell-based; conditions: 100 μg/ml peptide, 1 μg/ml LPS, 24 hours
Protocol: FIG. 11 illustrates the effects of peptides of fraction #23 and tryptophan on TNF-α and IL-6 expression in RAW 246.7 cells. All values expressed in pg/ml +/− SD. Cells grown in 24-well culture tissue-culture grade plates (Corning) and incubated with 100 μg/ml of one of eight milk peptides 1-8 (SEQ ID NOs. 28, 1, 29, 2, 8, 9, 19, and 22, respectively) and 1 μg/ml LPS.
A mouse macrophage cell line (RAW 264.7) was activated with 1 μg/m1 lipopolysaccharide (LPS), a gram negative bacterial cell wall product which induces the expression of inflammatory cytokines (Interleukin-6 [IL-6] and Tumor Necrosis Factor alpha [TNF-α]) via activation of toll-like receptors [Wu, T. T. et al. Toxicol Let. 195-202 (2009). After incubation with LPS for 24 hours in the presence of the peptides from example 7, cell supernatant was collected and mouse IL-6 and TNF-α titres were determined by a standard micro-plate enzyme-linked immunosorbent assay (ELISA) technique (e-Biosciences).

[5] = system: IL-8 secretion in Caco-2 cells; assay: LPS induced IL-8 secretion in Caco-2 cell culture model; assay type: cell-based; conditions: 50, 100, 200 μg/ml, 4, 8, 20, 24 h
Text: Culture medium for non-peptide treated cells was used as control. *P<0.05 indicates a significant difference between the 23-8 treated group and the control group (one-way ANOVA, n=4).

Molecule	radical scavenging activity in ORAC assay (in words) [1]	TNF-α expression compared to the control (cell culture medium plus LPS) ([2]; 100 μg/ml peptide)	ORAC value (scavenging activity) [1] [uM Trolox/g]	also measured
VPVQA (listed as Homo sapiens) [SEQ ID NO. 1, fragment from human beta casein in fraction #23]	No scavenging activities	significantly inhibited		
HNPI (listed as Homo sapiens) [SEQ ID NO. 28, fragment from human beta casein in fraction #23]			114 ±14	levels of MCP-1 from PBMCs [3]: robust response; also recorded: significant activity
ISELGW (listed as Homo sapiens) [SEQ ID NO. 22, tryptophan-containing peptide of fraction #23, not matched to a human milk protein]	most radical scavenging properties	significantly inhibited		IL-6 expression [4]: significantly reduced; LPS induced interleukin-8 (IL-8) secretion [5]: decrease; levels of MCP-1 from PBMCs [3]: robust response; also recorded: significantly increased
SEQ ID NO. 8: human kappa-casein f(31-36), identified in fraction #23 (VPNSYP; listed as Homo sapiens)			3462±560	
N[C@@H](Cc1c[nH]c2ccccc12)C(=O)O [tryptophan, L-tryptophan, reference compound]				TNF-α expression compared to the control (cell culture medium plus LPS) ([2]; 100 μM tryptophan): greatest inhibition
SEQ ID NO. 9: human kappa-casein f(53-58), identified in fraction #23 (NPYVPR; listed as Homo sapiens)			3380±592	
PLAQPA (listed as Homo sapiens) [SEQ ID NO. 29, fragment from human beta casein in fraction #23]	No scavenging activities	significantly inhibited		
SEQ ID NO. 2: human beta-casein f(169-173), identified in fraction #23 (VPYPQ; listed as Homo sapiens)		significantly inhibited	3940±623	
SEQ ID NO. 19: tyrosine-containing peptide of fraction #23, not matched to a human milk protein (YGYTGA; listed as Homo sapiens)	most radical scavenging properties	significantly inhibited	8205±552	
